Assay results published in the supplement of paper PMC5908809.

How the values were obtained:
[1] = tested on: normal NK cells expanded with K562-aAPC; experiment: percent inhibition of viability; higher = more inhibition; conditions: 72 h, IL-2 2.5 ng/mL
Procedure: (§1)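 Drug sensitivity and resistance testing on K562-aAPC-expanded normal NK cells: 5 concentrations (10-fold steps over a 10,000-fold range), 72 h at 37 °C, viability by CellTiter-Glo normalised to DMSO and benzethonium chloride controls; DSS from the fitted curve.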

[2] = tested on: DERL-7 (IL-2 2.5 ng/mL); experiment: as above; conditions: 72 h
[3] = tested on: IMC-1 (IL-2 20 ng/mL); experiment: as above; conditions: 72 h
[4] = tested on: KAI3 (IL-2 2.5 ng/mL); experiment: as above; conditions: 72 h
[5] = tested on: KHYG-1 (IL-2 2.5 ng/mL); experiment: as above; conditions: 72 h
[6] = tested on: NK-92 (IL-2 2.5 ng/mL); experiment: as above; conditions: 72 h
[7] = tested on: NK-YS (IL-2 2.5 ng/mL); experiment: as above; conditions: 72 h
[8] = tested on: NKL (IL-2 2.5 ng/mL); experiment: as above; conditions: 72 h
[9] = tested on: SNK-6 (IL-2 2.5 ng/mL); experiment: as above; conditions: 72 h
[10] = tested on: YT (IL-2 2.5 ng/mL); experiment: as above; conditions: 72 h
[11] = tested on: normal primary NK cells, pool 1 (3 donors) (IL-2 2.5 ng/mL); experiment: as above; conditions: 72 h
[12] = tested on: normal primary NK cells, pool 1 (3 donors), resting (IL-2 0 ng/mL); experiment: as above; conditions: 72 h
[13] = tested on: normal primary NK cells, pool 2 (3 donors) (IL-2 2.5 ng/mL); experiment: as above; conditions: 72 h
[14] = tested on: normal primary NK cells, pool 3 (3 donors) (IL-2 2.5 ng/mL); experiment: as above; conditions: 72 h
[15] = tested on: normal NK cells expanded with K562-aAPC; experiment: drug sensitivity score (DSS) (DSS units); higher = more sensitive; extreme values may be limits of the assay; conditions: 72 h; IL-2 2.5 ng/mL
Procedure: as §1

[16] = tested on: DERL-7 (IL-2 2.5 ng/mL); experiment: as above; conditions: 72 h
[17] = tested on: IMC-1 (IL-2 20 ng/mL); experiment: as above; conditions: 72 h
[18] = tested on: KAI3 (IL-2 2.5 ng/mL); experiment: as above; conditions: 72 h
[19] = tested on: KHYG-1 (IL-2 2.5 ng/mL); experiment: as above; conditions: 72 h
[20] = tested on: NK-92 (IL-2 2.5 ng/mL); experiment: as above; conditions: 72 h
[21] = tested on: NK-YS (IL-2 2.5 ng/mL); experiment: as above; conditions: 72 h
[22] = tested on: NKL (IL-2 2.5 ng/mL); experiment: as above; conditions: 72 h
[23] = tested on: SNK-6 (IL-2 2.5 ng/mL); experiment: as above; conditions: 72 h
[24] = tested on: YT (IL-2 2.5 ng/mL); experiment: as above; conditions: 72 h
[25] = tested on: normal primary NK cells, pool 1 (3 donors) (IL-2 2.5 ng/mL); experiment: as above; conditions: 72 h
[26] = tested on: normal primary NK cells, pool 1 (3 donors), resting (IL-2 0 ng/mL); experiment: as above; conditions: 72 h
[27] = tested on: normal primary NK cells, pool 2 (3 donors) (IL-2 2.5 ng/mL); experiment: as above; conditions: 72 h
[28] = tested on: normal primary NK cells, pool 3 (3 donors) (IL-2 2.5 ng/mL); experiment: as above; conditions: 72 h

CCc1cc(Nc2nccc(-c3c(-c4ccc(OC)c(C(=O)Nc5c(F)cccc5F)c4)nc4ccccn34)n2)c(OC)cc1N1CCC(N2CCN(S(C)(=O)=O)CC2)CC1 (max concentration tested 10000 nM)
percent inhibition of viability [%]
Conditions | 1 nM | 10 nM | 100 nM | 1000 nM | 10000 nM
[1] | -0.94 | -0.53 | -2.18 | 1.87 | 0.97
[2] | -3.29 | 4.96 | -4.2 | 9.43 | 2.99
[3] | -4.74 | -7.3 | -8.28 | -4.78 | -4.76
[4] | 12.8 | 4.45 | 3.16 | -0.26 | -1.06
[5] | -1.04 | -3.94 | -1.22 | -2.02 | -0.15
[6] | -8.65 | -15.5 | 0.66 | 9.19 | 19.7
[7] | -1.69 | -4.53 | 2.55 | 3.02 | 7.23
[8] | -12.8 | -7.57 | -8.59 | -4.55 | -4.74
[9] | -2.73 | -8.81 | -9.86 | -16 | -27.5
[10] | 2.55 | -0.94 | 2.88 | -1.24 | 0.54
[11] | -5.95 | -3.54 | 3.36 | -0.74 | -0.37
[12] | -6.68 | -7.72 | 5.14 | 4.15 | 11.5
[13] | -9.34 | 1.62 | -10.3 | -0.25 | -11.9
[14] | 1.45 | 1.94 | -1.25 | -1.57 | -1.55

Conditions | drug sensitivity score
[15] | 0
[16] | 0
[17] | 0
[18] | 0
[19] | 0
[20] | 1.41
[21] | 0
[22] | 0
[23] | 0
[24] | 0
[25] | 0
[26] | 0
[27] | 0
[28] | 0

CC(=O)Nc1ccc(C(=O)Nc2ccccc2N)cc1 [Tacedinaline] (max concentration tested 1000 nM)
percent inhibition of viability [%]
Conditions | 0.1 nM | 1 nM | 10 nM | 100 nM | 1000 nM
[1] | -1.06 | -4 | -3.33 | 3.27 | 14
[2] | -0.72 | 2.51 | 4.2 | -1.26 | -25
[3] | -3.66 | -4.64 | -1.29 | 1.46 | 17.6
[4] | -0.2 | 1.1 | -0.46 | -0.59 | 35.3
[5] | -0.97 | -4.06 | -3.24 | 4.27 | 16.5
[6] | -18.8 | 2.67 | -7.86 | 1.73 | 27.5
[7] | -0.71 | -3.09 | -0.76 | 2.62 | 20.6
[8] | -13.2 | -9.56 | -8.35 | 10.4 | 13.4
[9] | 1.48 | -10.9 | -5.83 | 1.17 | 46.3
[10] | -4.71 | -3.94 | -0.65 | 4.76 | 25.3
[11] | -1.61 | 16.8 | 8.47 | 8.43 | 13
[12] | -5.67 | 17.3 | 11.8 | 17 | 7.91
[13] | -2.79 | 13 | 9.29 | 6.96 | 7.45
[14] | -4.4 | 14.9 | 12.8 | -1.16 | -0.28

Conditions | drug sensitivity score
[15] | 0.42
[16] | 0
[17] | 0.58
[18] | 1.62
[19] | 0.78
[20] | 1.36
[21] | 1
[22] | 0.67
[23] | 2.54
[24] | 1.69
[25] | 0.6
[26] | 5.06
[27] | 0
[28] | 0

Nc1ncnc2c1c(COc1cccc(Cl)c1)nn2C1CCOCC1 (max concentration tested 10000 nM)
percent inhibition of viability [%]
Conditions | 1 nM | 10 nM | 100 nM | 1000 nM | 10000 nM
[1] | -1.33 | -1.38 | -0.63 | 3.72 | 15.8
[2] | -1.45 | -6.37 | 0.64 | 4.1 | 23.4
[3] | -0.63 | -0.09 | 1.3 | 2.67 | 5.66
[4] | -4.22 | -5.6 | -4.5 | -2.39 | 10.8
[5] | 3.82 | 3.26 | 2.76 | 9.04 | 2.95
[6] | 5.04 | -5.45 | 2.8 | 11.6 | 20.2
[7] | -2.03 | -5.09 | -3.81 | -2.25 | 1.95
[8] | 2.65 | 1.05 | 6.33 | 7.05 | 28
[9] | 11.9 | 13.8 | -0.97 | 16.6 | 15
[10] | 5.62 | 8.61 | 4.5 | 8.08 | 29.8
[11] | -5.02 | -2.71 | -7 | -1.66 | 12.2
[12] | -7.87 | -6 | -17.2 | 5.79 | 10.6
[13] | -11.2 | -9.94 | -1.24 | -2.49 | 18.9
[14] | -12.8 | -14.6 | -0.61 | 5.01 | 13

Conditions | drug sensitivity score
[15] | 0.66
[16] | 1.44
[17] | 0
[18] | 0
[19] | 0
[20] | 1.45
[21] | 0
[22] | 1.92
[23] | 0
[24] | 2.23
[25] | 0.03
[26] | 0.06
[27] | 0.39
[28] | 0.39

Nc1ccn([C@@H]2O[C@H](CO)[C@@H](O)C2(F)F)c(=O)n1 [Gemcitabine] (max concentration tested 1000 nM)
percent inhibition of viability [%]
Conditions | 0.1 nM | 1 nM | 10 nM | 100 nM | 1000 nM
[1] | 1.65 | 34.8 | 55.6 | 74.6 | 88.2
[2] | -4.73 | -12.3 | 44.9 | 99.7 | 99.8
[3] | -7.53 | 2 | 99.1 | 101 | 101
[4] | -18.3 | 3.34 | 79.8 | 98.3 | 101
[5] | 2.22 | 12.5 | 101 | 105 | 105
[6] | -6.25 | 12.2 | 92.2 | 104 | 104
[7] | -3.23 | -1.72 | 87.7 | 97.1 | 101
[8] | -10.6 | 68.9 | 102 | 106 | 104
[9] | 18.4 | 13.8 | 57.7 | 94.6 | 100
[10] | 2.42 | -2.18 | 20.1 | 78.2 | 65
[11] | -2.78 | -14 | 4.7 | -1.17 | 26.4
[12] | -12.2 | -40.4 | -21.2 | -27.6 | 23.4
[13] | -12.2 | -6.97 | 19.6 | 14.7 | 29.7
[14] | -9.85 | -6.72 | 16.8 | 12.6 | 38

Conditions | drug sensitivity score
[15] | 24.5
[16] | 23.7
[17] | 30.6
[18] | 27.6
[19] | 32.6
[20] | 31
[21] | 28.4
[22] | 38.4
[23] | 25.1
[24] | 17.4
[25] | 0.96
[26] | 0.38
[27] | 3.97
[28] | 3.49

Oc1c2ccccc2c2c3c(cccc13)N=N2 (max concentration tested 100000 nM)
percent inhibition of viability [%]
Conditions | 10 nM | 100 nM | 1000 nM | 10000 nM | 100000 nM
[1] | -5.86 | -5.73 | -0.03 | 16.2 | 46.2
[2] | 0.02 | 10.7 | 21.6 | 53.3 | 72.7
[3] | -9.76 | -5.66 | -7.38 | 9.45 | 15.4
[4] | -1.06 | -0.37 | -1.44 | 36 | 77.2
[5] | -9.58 | -4.25 | -1.77 | 41.2 | 79.2
[6] | 5.13 | 5.87 | 15.3 | 43.2 | 71.4
[7] | -9.38 | -3.05 | -7.51 | 20.3 | 61
[8] | -5.72 | 1.11 | 17.1 | 43.4 | 71.7
[9] | -6.71 | -15.7 | -11.4 | 25.4 | 66.8
[10] | -6.35 | -2.65 | -2.78 | 17.4 | 42.7
[11] | 1.28 | 6.88 | 11.3 | 22.6 | 57.5
[12] | 10.6 | 13.4 | 3.37 | 16 | 14.5
[13] | -8.33 | -0.93 | 6.2 | 28.3 | 40.2
[14] | -1.96 | 3 | 10.6 | 5.71 | 43.7

Conditions | drug sensitivity score
[15] | 4.7
[16] | 12.8
[17] | 0.95
[18] | 8.9
[19] | 9.5
[20] | 10.2
[21] | 6.25
[22] | 10.3
[23] | 7.17
[24] | 4.53
[25] | 5.75
[26] | 0
[27] | 5.61
[28] | 3.2
